In paper PMC2806525, “Proteinase-activated receptor-2 mediated inhibition of TNFα-stimulated JNK activation — A novel paradigm for Gq/11 linked GPCRs” (Cellular Signalling, 2010):
Entries after “also recorded” stand apart in the source; their conditions may differ. Residues, ends and D or L forms follow the SMILES beside them.

What was measured:
[1] = system: PKC; assay: TNFα-stimulated JNK activity, PKC activator / PKC inhibitor, PAR2 NCTC2544 cells; type: cell-based, human
Protocol: (§1) Human skin epithelial cells NCTC2544 were maintained in M199 medium with Earl's salt supplement, 10% (v/v) foetal calf serum, L-glutamine (27 µg/ml), penicillin (250 U/ml), and streptomycin (25 mg/ml). NCTC2544 cells stably expressing human PAR2 (clone G) were maintained in complete M199 medium containing 400 μg/ml of Geneticin for selection pressure and passaged using Versene (2% EDTA/PBS). EAhy-926 cells were produced by hybridizing human umbilical vein endothelial cells (HUVECs) with the epithelial cell line A549 [27] and maintained in Dulbecco's Modified Eagle's Medium (DMEM) supplemented with 10% foetal calf serum (FCS), hypoxanthine/aminopterin/thymidine (HAT supplement), penicillin (250 U/ml) and streptomycin (25 mg/ml), and cells were passaged using Versene.
To measure JNK activity, cells were stimulated as appropriate and the reaction terminated by rapid aspiration and the addition of ice-cold PBS. The cells were solubilised in 20 mM HEPES buffer, pH 7.7, containing 50 mM NaCl, 0.1 mM EDTA, 0.1 mM Na3VO4, 0.1 mM PMSF, 10 mg/ml aprotinin, 10 mg/ml leupeptin, and 1% (w/v) Triton X-100. Lysates were clarified by centrifugation for 5 min at 13,000 rpm and equal amounts of protein were incubated with 20 μg of GST-c-Jun-(5–89) immobilized on glutathione-Sepharose at 4 °C for 3 h. Beads were then washed three times in solubilisation buffer and twice in 25 mM HEPES buffer, pH 7.6, containing 20 mM β-glycerophosphate, 0.1 mM NaV3O4, and 2 mM dithiothreitol. Precipitates were then incubated with the same buffer containing 25 μM/0.5 μCi of ATP/[γ-^32P] ATP in a final volume of 30 µl at 30 °C for 30 min. The reactions were terminated by the addition of 4× SDS-sample buffer and aliquots of each sample subjected to electrophoresis on 11% SDS-polyacrylamide gel electrophoresis. Phosphorylation of GST-c-Jun was then determined by autoradiography.
Where experimental data is shown as a blot, this represents one of at least 3 experiments and data represents the mean ± s.e.m. Statistical analysis was by one-way ANOVA with Dunnett's post test (*P < 0.05, **P < 0.01).
Fig. 5 Pharmacological blockade of protein kinase C reverses PAR2 mediated inhibition of TNFα-stimulated JNK activation. PAR2 expressing NCTC2544 cells (clone G) were pre-incubated with increasing concentrations of GF109203X (GFX) for 30 min then incubated for a further 30 min with 100 nM PMA (Panel A) or 30 nM trypsin (Panel B) prior to stimulation for a further 30 min with TNFα(+) (10 ng/ml). Samples were assessed for JNK activity (Panels A and B) or phospho-JNK levels (Panel D) as outlined in the Methods section. Gels from JNK activity assays were quantified by densitometry (Panel C). Each value represents the mean ± s.e.m from at least 4 experiments. ⁎⁎P < 0.01 compared to TNFα and trypsin stimulated.

[2] = system: PKC; assay: TNFα-stimulated JNK phosphorylation, PKC activator / PKC inhibitor, PAR2 NCTC2544 cells; type: cell-based, human; settings: GF109203X 10 μM; trypsin or SLIGKV-OH; TNFα 10 ng/ml 30 min
Protocol: as §1
Proteins were separated by 10% SDS–PAGE and transferred onto nitrocellulose. The membranes were blocked for non-specific binding for 2 h in 2% BSA (w/v) diluted in NATT buffer (50 mM Tris–HCl, 150 mM NaCl, 0.2% (v/v) Tween-20). […]
Fig. 5 Pharmacological blockade of protein kinase C reverses PAR2 mediated inhibition of TNFα-stimulated JNK activation. […] Samples were assessed for JNK activity (Panels A and B) or phospho-JNK levels (Panel D) as outlined in the Methods section. Gels from JNK activity assays were quantified by densitometry (Panel C). […]

[3] = system: TNFR1/TRADD; assay: TNFR1/TRADD complex formation (TNFR1 immuno-precipitation, TRADD immuno-blot), PAR2 expressing cells; type: cell-based, human; settings: 100 nM YM254890 or 3 μM GF109203X 30 min, peptide 100 μM 30 min, TNFα 10 ng/ml 30 min
Protocol: as §1
Proteins were separated by 10% SDS–PAGE and transferred onto nitrocellulose. The membranes were blocked for non-specific binding for 2 h in 2% BSA (w/v) diluted in NATT buffer (50 mM Tris–HCl, 150 mM NaCl, 0.2% (v/v) Tween-20). The blots were then incubated overnight with 50 ng/ml primary antibody diluted in 0.2% BSA (w/v) in NATT buffer. The blots were washed with NATT buffer for 90 min and incubated with HRP-conjugated secondary antibody (20 ng/ml in 0.2% BSA (w/v) diluted in NATT buffer) for 2 h. After a further 90 min wash, the blots were subjected to ECL reagent and exposed to Kodak X-ray film.
For immuno-precipitation of TNFR1, equal amounts of pre-cleared cell lysates were incubated in Tris–HCl buffer, pH 7.4, containing 50 mM NaCl, 1 mM EDTA, 1 mM EGTA, 1% (w/v) Triton X-100, and 0.5% (w/v) Nonidet P-40, with 2 μg TNFR1 antibody, pre-coupled to protein G, for 3 h. Lysates were recovered by sequential washes in solubilisation buffer and in the same buffer lacking detergents. Precipitates were assessed for TRADD or RIP content using Western blotting.
Fig. 7 PAR2 mediated TNFR1 adapter protein disruption in PAR2 expressing cells. In Panel A, cells were pre-treated with peptide (100 μM) or vehicle prior to stimulation with TNFα (10 ng/ml) for 30 min. Lysates were immuno-precipitated for TNFR1 and immuno-blotted for TRADD and/or RIP, as outlined in the Methods section. In Panel B cells were pre-treated with 100 nM YM254890 or 3 μM GF109203X for 30 min prior to pre-treatment with peptide (100 μM), for 30 min, then incubated for a further 30 min with TNFα (10 ng/ml). TNFR1 immuno-precipitates were immuno-blotted for TRADD. Each gel is representative of at least three experiments.

[4] = system: PKC isoforms; settings: cited from earlier work
From the text: We then examined the potential signalling pathways which could be mediating the inhibitory effects of PAR2. PAR2 is coupled to a number of signalling pathways via G-protein dependent and independent mechanisms. […] Therefore, we tested the effect of the PKC inhibitor GF109203X on PAR2 mediated inhibition of JNK activity and phosphorylation. ... || We then sought to investigate the possible mechanisms by which PAR2 mediated inhibition of JNK might occur. […] This is typical of a number of keratinocyte cell type ...

[5] = molecular target: T1, human PAR2 (Homo sapiens, UniProt P55085); assay: TNFα-stimulated JNK activity (in vitro c-Jun phosphorylation), PAR2 agonist pre-incubation, PAR2 NCTC2544 cells (clone G); type: cell-based; settings: 30 min pre-incubation, then TNFα 30 min, mean ± s.e.m, at least 4 experiments
T1 construct: expressed in transfected cells
T1 sequence (P55085 26-397): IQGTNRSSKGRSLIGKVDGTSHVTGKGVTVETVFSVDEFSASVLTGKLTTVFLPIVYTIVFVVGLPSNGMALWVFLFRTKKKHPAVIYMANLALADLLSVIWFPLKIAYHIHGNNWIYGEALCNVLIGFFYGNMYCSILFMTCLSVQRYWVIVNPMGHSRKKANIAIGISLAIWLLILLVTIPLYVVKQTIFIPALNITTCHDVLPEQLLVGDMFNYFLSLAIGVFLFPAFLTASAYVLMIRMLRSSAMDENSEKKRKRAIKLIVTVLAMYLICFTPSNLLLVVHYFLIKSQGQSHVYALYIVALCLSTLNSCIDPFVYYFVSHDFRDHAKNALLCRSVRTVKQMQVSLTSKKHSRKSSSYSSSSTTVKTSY
Protocol: as §1
To measure JNK activity, cells were stimulated as appropriate and the reaction terminated by rapid aspiration and the addition of ice-cold PBS. […] Phosphorylation of GST-c-Jun was then determined by autoradiography. […]
Fig. 1 PAR2 activation mediates inhibition of TNFα-stimulated JNK activity and phosphorylation in PAR2 NCTC2544 cells. […] Samples were assessed for JNK activity (Panel A) or phospho-JNK levels (Panel C) as outlined in the Methods section. Gels from JNK assays were quantified (Panel B). Each value represents the mean ± s.e.m from at least 4 experiments and data was quantified by densitometry. ⁎P < 0.05, ⁎⁎P < 0.01 compared to TNFα alone.
(§2) Fig. 4 Concentration response effects of PAR2 peptides for activation of JNK and inhibition of TNFα-stimulated JNK. PAR2 expressing NCTC2544 cells (clone G) were incubated with increasing concentrations of SLIGKV-OH or 2f-LIGKV-OH for 30 min and assayed for JNK activity (Panel B) or stimulated for a further 30 min with TNFα (+) before JNK activity was assessed (Panel A). Samples were assessed for JNK activity as outlined in the Methods section. Gels from JNK assays were quantified (Panel C). Each value represents the mean ± s.e.m from at least 4 experiments and data was quantified by densitometry.

[6] = molecular target: T1, human PAR2; assay: JNK activity, agent alone, PAR2 NCTC2544 cells (clone G); type: cell-based; settings: 30 min, no TNFα, mean ± s.e.m, at least 4 experiments
Protocol: as §1
To measure JNK activity, cells were stimulated as appropriate and the reaction terminated by rapid aspiration and the addition of ice-cold PBS. The cells were solubilised in 20 mM HEPES buffer, pH 7.7, containing 50 mM NaCl, 0.1 mM EDTA, 0.1 mM Na3VO4, 0.1 mM PMSF, 10 mg/ml aprotinin, 10 mg/ml leupeptin, and 1% (w/v) Triton X-100. Lysates were clarified by centrifugation for 5 min at 13,000 rpm and equal amounts of protein were incubated with 20 μg of GST-c-Jun-(5–89) immobilized on glutathione-Sepharose at 4 °C for 3 h. […] Phosphorylation of GST-c-Jun was then determined by autoradiography. […]
as §2

SMILES: CN(C)CCCn1cc(C2=C(c3c[nH]c4ccccc34)C(=O)NC2=O)c2ccccc21 [GF109203X]
- reversal of PAR2 mediated inhibition of JNK activity by PKC inhibitor ([1]; GF109203X 10 μM (maximal concentration), trypsin 30 nM or SLIGKV-OH, TNFα 10 ng/ml 30 min): reversed the inhibitory effect of trypsin and SLIGKV-OH on TNFα-stimulated JNK activation
- reversal of PAR2 mediated JNK inhibition by PKC inhibitor, general statement ([1]; abstract / discussion): the effects of both agents were reversed; also recorded: good reversal of PAR2 mediated inhibition
- reversal of PMA effect on TNFα-stimulated JNK activity ([1]; micromolar concentrations GF109203X 30 min, 100 nM PMA 30 min, TNFα 10 ng/ml 30 min): reversed by micromolar concentrations
- reversal of PAR2 mediated inhibition of JNK phosphorylation by PKC inhibitor [2]: reversed the inhibitory effect
- reversal of PAR2 mediated disruption of TNFR1/TRADD complex [3]: effectively reversed PAR2 mediated disruption
- PKC isoform inhibition ([4]; ref [40–42]): block both Ca^2+-dependent and some novel PKC isoforms

SMILES: Cn1c2ccccc2c2c3c(c4c5ccccc5n(CCC#N)c4c21)CNC3=O [Go6976]
- effect of classical PKC inhibitor on PAR2 mediated JNK inhibition ([1]; not shown): without effect
- PKC isoform preference ([4]; no reference given): preferentially inhibits the classical group of PKC isoforms

SMILES: CC[C@H](C)[C@H](NC(=O)[C@H](CC(C)C)NC(=O)[C@@H](N)CO)C(=O)NCC(=O)N[C@@H](CCCCN)C(=O)N[C@H](C(=O)O)C(C)C [SLIGKV-OH] (H-SLIGKV-OH)
- IC50 ([5]; densitometry, read-out: IC50, inhibition of TNFα-stimulated JNK activity): 6.24 ± 1.32 µM
- % inhibition of TNFα-stimulated JNK activity ([5]; maximal efficacy comparison): 93.567 ± 6.882%
- EC50 ([6]; densitometry, read-out: EC50, stimulation of JNK activity by peptide alone): 10.1 ± 3.3 µM
- % stimulation of JNK activity alone ([6]; maximal efficacy comparison): 43.950 ± 6.482%
